Reference: publication PMC7024302, “Ultrashort Cationic Lipopeptides–Effect of N-Terminal Amino Acid and Fatty Acid Type on Antimicrobial Activity and Hemolysis” (Molecules, 2020)
Converted amounts (≈) assume the structure as drawn. Residues, ends and D or L forms follow the SMILES beside them.

Columns and labels:
[1] = Determination of peptide hydrophobicity with RP-HPLC (adjusted retention time); format: physicochemical; conditions: RP-HPLC C18, linear 10–55% acetonitrile over 60 min, 0.1% TFA, 25.0 °C, UV 214 nm, triplicate; for Adjusted retention time: Table 2, nC = carbon atoms in fatty acid chain; for tR’: Table 3, adjusted retention time as hydrophobicity
Method: To determine peptide hydrophobicity, the Waters Alliance e2695 system with a Waters 2998 PDA Detector (software-Empower®3) was used. All analyses were carried out on a Phenomenex Luna C18(2) column (3.0 × 100 mm, 5 µm particle size, 100 Å pore size). The peptides were dissolved in water (0.1% TFA, v/v) to obtain a concentration of 1 g/L. UV detection at 214 nm was used, and aliquots (10 µL) were eluted with a linear 10–55% acetonitrile gradient in deionized water over 60 min at 25.0 ± 0.1 °C. The mobile phase flow rate was 0.5 mL/min. Both eluents contained 0.1% (v/v) of TFA. Each peptide sample was analyzed in triplicate.

S. aureus ATCC 25923 = format: cell-based, Staphylococcus aureus; conditions: ATCC 25923, 18 h
Description: (§1) The Acinetobacter baumannii ATCC BAA-1605, Candida albicans ATCC 10231, Enterococcus faecium ATCC 700221, Klebsiella aerogenes ATCC 13048 (previously known as Enterobacter aerogenes), Klebsiella pneumoniae ATCC 700603, Pseudomonas aeruginosa ATCC 9027, Staphylococcus aureus ATCC 25923 and MRSA ATCC 33591, were acquired from the American Type Culture Collection (ATCC). Before running the tests, beads with cryo-protected microorganisms were transferred into fresh MHB (BioMaxima, Lublin, Poland) for bacteria or RPMI-1640 for fungi and incubated for 24 h at 37 °C. Then, the culture was seeded on the Mueller-Hinton agar (MHA) plates (BioMaxima, Lublin, Poland) for bacteria or Sabouraud dextrose agar (SDA) plates (BioMaxima, Lublin, Poland) for fungi and incubated as just mentioned. Cell densities for all assays were adjusted spectrophotometrically (Multiskan™ GO Microplate Spectrophotometer, Thermo Fisher Scientific, Vantaa, Finland) at 600 nm for bacteria and at 530 nm for fungi.
(§2) The MICs were determined by broth microdilution method according to the Clinical and Laboratory Standard Institute guidelines. For this purpose initial inoculums of bacteria (5 × 10^5 CFU/mL) in MHB (BioMaxima, Lublin, Poland) and fungi (2 × 10^3 CFU/mL) in RPMI-1640 with 2% D-glucose (Merck, Darmstadt, Germany) prepared with MOPS (pH 7.0 ± 0.1 at 25 °C; Merck, Darmstadt, Germany) were exposed to the ranging concentration of lipopeptides (0.5–256 µg/mL) and incubated at 37 °C for 18 h and 24 h respectively. The experiments were conducted on 96-well microtiter polystyrene plates (Kartell, Italy). The MIC was taken as the lowest peptide concentration at which a noticeable growth of microorganisms was inhibited. All experiments were conducted in triplicate.

[2] = system: S. aureus ATCC 33591 (MRSA); format: cell-based, Staphylococcus aureus; conditions: ATCC 33591, 18 h
Description: as §1, §2

P. aeruginosa ATCC 9027 = format: cell-based, Pseudomonas aeruginosa; conditions: ATCC 9027, 18 h
Description: as §1, §2

C. albicans ATCC 10231 = format: cell-based, Candida albicans; conditions: ATCC 10231, 24 h, pH 7
Description: as §1, §2

[3] = system: human red blood cells (hRBCs); format: cell-based; conditions: red cells of human, 1 h
Method: The hemolysis assay was performed as described earlier according to the method of Avrahami and Shai. Fresh human red blood cells (hRBCs) with anticoagulant (EDTA) were rinsed three times with a PBS (Merck, Darmstadt, Germany) by centrifugation at 800× g for 10 min and resuspended in PBS. Lipopeptides were serially diluted on 96-well microtiter polystyrene plate and hRBCs were added to reach final volume of 100 µL. Peptide concentration ranged between 0.5 and 256 µg/mL and final hRBCs concentration was 4% (v/v). Controls for zero hemolysis (blank) and 100% hemolysis consisted of hRBCs suspended in PBS and 1% of Triton-X 100 (Merck, Darmstadt, Germany), respectively. The plate was incubated for 1 h at 37 °C and then centrifuged (800× g, 10 min, 4 °C). Subsequently, supernatant was […] to new microtiter plates and absorbance at 540 nm were measured. All experiments were conducted in triplicate. Protocol of the study received approval from the local Bioethics Committee at the Medical University of Gdańsk (NKBBN/262/2019).

E. faecium ATCC 700221 = format: cell-based, Enterococcus faecium; conditions: ATCC 700221, 18 h
Description: as §1, §2

[4] = system: K. pneumoniae ATCC 700603; format: cell-based, Klebsiella pneumoniae; conditions: ATCC 700603, 18 h
Description: as §1, §2

[5] = system: A. baumannii ATCC BAA-1605; format: cell-based, Acinetobacter baumannii; conditions: ATCC BAA-1605, 18 h
Description: as §1, §2

K. aerogenes ATCC 13048 = format: cell-based, Klebsiella aerogenes; conditions: ATCC 13048, 18 h
Description: as §1, §2

| SMILES | Adjusted retention time [1] | tR’ [1] | MIC SA (S. aureus ATCC 25923) | MIC S [2] | MIC PA (P. aeruginosa ATCC 9027) | MIC CA (C. albicans ATCC 10231) | HC50 [3] | MIC E1 (E. faecium ATCC 700221) | MIC K [4] | MIC A [5] | MIC E2 (K. aerogenes ATCC 13048) |
| --- | --- | --- | --- | --- | --- | --- | --- | --- | --- | --- | --- |
| CCCCCCCCCCCCCC(=O)N[C@@H](CC(C)C)C(=O)N[C@@H](CCCNC(=N)N)C(=O)N[C@@H](CCCNC(=N)N)C(N)=O [compound 46, C14-LRR-NH2] (HELM PEPTIDE1{[CCCCCCCCCCCCCC(=O)[*:2]].L.R.R.[am]}$$$$V2.0) | 46.441 min | 46.44 min | 4 µg/mL (≈ 6.13 µM) | 16 µg/mL (≈ 24.5 µM) | 4 µg/mL (≈ 6.13 µM) | 4 µg/mL (≈ 6.13 µM) | 29.50 (±1.05) µg/mL | 8 µg/mL (≈ 12.3 µM) | 128 µg/mL (≈ 196 µM) | 64 µg/mL (≈ 98 µM) | 128 µg/mL (≈ 196 µM) |
| CCCCCCCCCCCC(=O)N[C@@H](CCSC)C(=O)N[C@@H](CCCNC(=N)N)C(=O)N[C@@H](CCCNC(=N)N)C(N)=O [compound 49, C12-MRR-NH2] (HELM PEPTIDE1{[CCCCCCCCCCCC(=O)[*:2]].M.R.R.[am]}$$$$V2.0) | – | 37.95 min | 8 µg/mL (≈ 12.4 µM) | 16 µg/mL (≈ 24.9 µM) | 32 µg/mL (≈ 49.8 µM) | 32 µg/mL (≈ 49.8 µM) | 206.50 (±9.14) µg/mL | 16 µg/mL (≈ 24.9 µM) | 256 µg/mL (≈ 398 µM) | 64 µg/mL (≈ 99.5 µM) | 256 µg/mL (≈ 398 µM) |
| CCCCCCCCCCCCCC(=O)N[C@@H](CC[S+](C)[O-])C(=O)N[C@@H](CCCNC(=N)N)C(=O)N[C@@H](CCCNC(=N)N)C(N)=O (stereo partly shown) [compound 54, C14-M(O)RR-NH2] (HELM PEPTIDE1{[CCCCCCCCCCCCCC(=O)[*:2]].[CS(=O)CC[C@H](N[*:1])C(=O)[*:2]].R.R.[am]}$$$$V2.0) | – | 39.18 min | 32 µg/mL (≈ 46.6 µM) | 16 µg/mL (≈ 23.3 µM) | 64 µg/mL (≈ 93.2 µM) | 32 µg/mL (≈ 46.6 µM) | 116.28 (±1.77) µg/mL | 16 µg/mL (≈ 23.3 µM) | 256 µg/mL (≈ 373 µM) | 64 µg/mL (≈ 93.2 µM) | >256 (-) µg/mL |
| CCCCCCCCCCCCCC(=O)N[C@@H](CCS(C)(=O)=O)C(=O)N[C@@H](CCCNC(=N)N)C(=O)N[C@@H](CCCNC(=N)N)C(N)=O [compound 58, C14-M(O2)RR-NH2] (HELM PEPTIDE1{[CCCCCCCCCCCCCC(=O)[*:2]].[CS(=O)(=O)CC[C@H](N[*:1])C(=O)[*:2]].R.R.[am]}$$$$V2.0) | – | 41.17 min | 16 µg/mL (≈ 22.8 µM) | 16 µg/mL (≈ 22.8 µM) | 32 µg/mL (≈ 45.5 µM) | 16 µg/mL (≈ 22.8 µM) | 70.11 (±2.93) µg/mL | 8 µg/mL (≈ 11.4 µM) | 256 µg/mL (≈ 364 µM) | 32 µg/mL (≈ 45.5 µM) | 256 µg/mL (≈ 364 µM) |
| CCCCCCCCCCCC(=O)N[C@@H](CCCC)C(=O)N[C@@H](CCCNC(=N)N)C(=O)N[C@@H](CCCNC(=N)N)C(N)=O [compound 65, C12-NleRR-NH2] (HELM PEPTIDE1{[CCCCCCCCCCCC(=O)[*:2]].[Nle].R.R.[am]}$$$$V2.0) | 39.958 min | – | 8 µg/mL (≈ 12.8 µM) | 8 µg/mL (≈ 12.8 µM) | 8 µg/mL (≈ 12.8 µM) | 16 (>16) µg/mL | >256 µg/mL | 8 µg/mL (≈ 12.8 µM) | 256 µg/mL (≈ 410 µM) | 32 µg/mL (≈ 51.2 µM) | 256 µg/mL (≈ 410 µM) |

Further lines, results first:

| Adjusted retention time [1] | tR’ [1] | MIC SA (S. aureus ATCC 25923) | MIC S [2] | MIC PA (P. aeruginosa ATCC 9027) | MIC CA (C. albicans ATCC 10231) | HC50 [3] | MIC E1 (E. faecium ATCC 700221) | MIC K [4] | MIC A [5] | MIC E2 (K. aerogenes ATCC 13048) | SMILES |
| --- | --- | --- | --- | --- | --- | --- | --- | --- | --- | --- | --- |
| 45.650 min | 45.65 min | 4 µg/mL (≈ 6.13 µM) | 4 µg/mL (≈ 6.13 µM) | 4 µg/mL (≈ 6.13 µM) | 4 µg/mL (≈ 6.13 µM) | 78.92 (±4.38) µg/mL | 4 µg/mL (≈ 6.13 µM) | 64 µg/mL (≈ 98 µM) | 64 µg/mL (≈ 98 µM) | 64 µg/mL (≈ 98 µM) | CCCCCCCCCCCCCC(=O)N[C@H](C(=O)N[C@@H](CCCNC(=N)N)C(=O)N[C@@H](CCCNC(=N)N)C(N)=O)[C@@H](C)CC [compound 38, C14-IRR-NH2] (HELM PEPTIDE1{[CCCCCCCCCCCCCC(=O)[*:2]].I.R.R.[am]}$$$$V2.0) |
| – | 35.66 min | 8 µg/mL (≈ 12 µM) | 8 µg/mL (≈ 12 µM) | 64 µg/mL (≈ 95.8 µM) | 32 µg/mL (≈ 47.9 µM) | 212.08 (±6.12) µg/mL | 8 µg/mL (≈ 12 µM) | 128 µg/mL (≈ 192 µM) | 64 µg/mL (≈ 95.8 µM) | 64 µg/mL (≈ 95.8 µM) | CCCCCCCCCCCCCC(=O)N[C@@H](CCCCN)C(=O)N[C@@H](CCCNC(=N)N)C(=O)N[C@@H](CCCNC(=N)N)C(N)=O [compound 42, C14-KRR-NH2] (HELM PEPTIDE1{[CCCCCCCCCCCCCC(=O)[*:2]].K.R.R.[am]}$$$$V2.0) |
| 39.821 min | 39.82 min | 8 µg/mL (≈ 12.8 µM) | 16 µg/mL (≈ 25.6 µM) | 16 µg/mL (≈ 25.6 µM) | 16 µg/mL (≈ 25.6 µM) | 112.81 (±1.39) µg/mL | 16 µg/mL (≈ 25.6 µM) | 256 µg/mL (≈ 410 µM) | 64 µg/mL (≈ 102 µM) | 256 µg/mL (≈ 410 µM) | CCCCCCCCCCCC(=O)N[C@@H](CC(C)C)C(=O)N[C@@H](CCCNC(=N)N)C(=O)N[C@@H](CCCNC(=N)N)C(N)=O [compound 45, C12-LRR-NH2] (HELM PEPTIDE1{[CCCCCCCCCCCC(=O)[*:2]].L.R.R.[am]}$$$$V2.0) |
| – | 44.69 min | 4 µg/mL (≈ 5.96 µM) | 8 µg/mL (≈ 11.9 µM) | 8 µg/mL (≈ 11.9 µM) | 4 µg/mL (≈ 5.96 µM) | 35.11 (±0.90) µg/mL | 8 µg/mL (≈ 11.9 µM) | 128 µg/mL (≈ 191 µM) | 32 µg/mL (≈ 47.7 µM) | 128 µg/mL (≈ 191 µM) | CCCCCCCCCCCCCC(=O)N[C@@H](CCSC)C(=O)N[C@@H](CCCNC(=N)N)C(=O)N[C@@H](CCCNC(=N)N)C(N)=O [compound 50, C14-MRR-NH2] (HELM PEPTIDE1{[CCCCCCCCCCCCCC(=O)[*:2]].M.R.R.[am]}$$$$V2.0) |
| – | 38.71 min | 16 µg/mL (≈ 24.5 µM) | 16 µg/mL (≈ 24.5 µM) | 32 µg/mL (≈ 48.9 µM) | 16 µg/mL (≈ 24.5 µM) | 64.37 (±2.23) µg/mL | 8 µg/mL (≈ 12.2 µM) | 128 µg/mL (≈ 196 µM) | 32 µg/mL (≈ 48.9 µM) | 128 µg/mL (≈ 196 µM) | CCCCCCCCCCCCCC(=O)N[C@@H](CC(N)=O)C(=O)N[C@@H](CCCNC(=N)N)C(=O)N[C@@H](CCCNC(=N)N)C(N)=O [compound 62, C14-NRR-NH2] (HELM PEPTIDE1{[CCCCCCCCCCCCCC(=O)[*:2]].N.R.R.[am]}$$$$V2.0) |
